How the values were obtained:
Format in all cases: cell-based
[1] = target: T1, Transient Receptor Potential Melastatin 3 (TRPM3) (Homo sapiens, UniProt Q9HCF6); experiment: Overlay binding assay with lysate of HEK […] cells expressing TRPM3-YFP; parameters: human TRPM3 tagged with YFP
[2] = target: T1, Transient Receptor Potential Melastatin 3 (TRPM3); experiment: Ca2+ measurement and whole-cell patch-clamp inhibition; steroid overlay binding of TRPM3-YFP lysate; parameters: human TRPM3 expressed in HEK 293 cells; TRPM3-YFP for overlay
[3] = target: T1, Transient Receptor Potential Melastatin 3 (TRPM3); experiment: Ca2+ measurement; […] inhibits PregS-evoked but not nifedipine-evoked TRPM3 activity; parameters: human TRPM3 expressed in HEK 293 cells

T1 sequence (Q9HCF6 whole entry): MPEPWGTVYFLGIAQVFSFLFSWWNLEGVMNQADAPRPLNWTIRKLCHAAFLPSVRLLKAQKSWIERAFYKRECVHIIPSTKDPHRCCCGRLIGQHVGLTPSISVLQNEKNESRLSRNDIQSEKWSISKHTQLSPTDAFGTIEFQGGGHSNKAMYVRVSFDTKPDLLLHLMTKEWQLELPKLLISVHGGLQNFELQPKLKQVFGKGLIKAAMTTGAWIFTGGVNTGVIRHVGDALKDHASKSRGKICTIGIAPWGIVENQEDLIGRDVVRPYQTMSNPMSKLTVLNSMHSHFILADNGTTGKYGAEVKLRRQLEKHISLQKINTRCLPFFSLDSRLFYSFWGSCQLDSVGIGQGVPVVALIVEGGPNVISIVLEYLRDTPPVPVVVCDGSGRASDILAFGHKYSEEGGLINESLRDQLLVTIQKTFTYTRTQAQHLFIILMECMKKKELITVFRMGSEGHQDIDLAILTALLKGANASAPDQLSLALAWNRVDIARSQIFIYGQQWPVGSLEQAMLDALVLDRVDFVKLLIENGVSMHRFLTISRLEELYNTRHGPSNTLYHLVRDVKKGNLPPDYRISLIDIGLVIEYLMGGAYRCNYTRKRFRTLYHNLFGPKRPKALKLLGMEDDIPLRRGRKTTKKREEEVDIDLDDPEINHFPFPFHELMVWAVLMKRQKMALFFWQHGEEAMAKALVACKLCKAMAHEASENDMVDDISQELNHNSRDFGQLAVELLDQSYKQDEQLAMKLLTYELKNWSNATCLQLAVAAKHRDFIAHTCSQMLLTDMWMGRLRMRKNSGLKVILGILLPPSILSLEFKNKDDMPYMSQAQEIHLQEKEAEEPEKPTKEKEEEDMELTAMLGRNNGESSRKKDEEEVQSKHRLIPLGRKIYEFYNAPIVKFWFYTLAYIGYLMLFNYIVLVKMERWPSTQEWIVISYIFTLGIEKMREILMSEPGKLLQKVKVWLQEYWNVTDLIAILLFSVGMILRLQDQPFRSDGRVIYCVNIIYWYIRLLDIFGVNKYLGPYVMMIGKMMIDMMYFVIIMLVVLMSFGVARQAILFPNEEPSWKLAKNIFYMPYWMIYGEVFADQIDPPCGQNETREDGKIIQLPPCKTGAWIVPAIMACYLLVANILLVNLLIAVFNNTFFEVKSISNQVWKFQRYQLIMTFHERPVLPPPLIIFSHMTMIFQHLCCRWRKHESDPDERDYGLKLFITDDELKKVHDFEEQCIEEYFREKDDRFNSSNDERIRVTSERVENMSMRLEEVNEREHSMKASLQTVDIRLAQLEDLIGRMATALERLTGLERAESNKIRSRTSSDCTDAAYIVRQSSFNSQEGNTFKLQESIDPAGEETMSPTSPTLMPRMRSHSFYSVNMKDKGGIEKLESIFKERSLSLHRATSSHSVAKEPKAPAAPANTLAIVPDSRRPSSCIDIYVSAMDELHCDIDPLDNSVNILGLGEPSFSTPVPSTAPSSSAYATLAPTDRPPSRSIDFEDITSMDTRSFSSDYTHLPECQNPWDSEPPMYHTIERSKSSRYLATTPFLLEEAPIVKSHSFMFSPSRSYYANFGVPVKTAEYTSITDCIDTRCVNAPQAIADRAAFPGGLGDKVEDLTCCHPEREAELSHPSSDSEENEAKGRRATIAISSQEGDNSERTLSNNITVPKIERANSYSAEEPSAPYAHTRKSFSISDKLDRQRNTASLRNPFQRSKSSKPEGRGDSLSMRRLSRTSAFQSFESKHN

## CC(C)CCC[C@@H](C)[C@H]1CC[C@H]2[C@@H]3CC=C4C[C@@H](O)CC[C@]4(C)[C@H]3CC[C@]12C [cholesterol]
[1]
  Overlay binding assay with lysate of HEK 293 cells expressing TRPM3-YFP: TRPM3 bound to pregnenolone sulphate, progesterone, nifedipine, dihydrotestosterone and cholesterol

## CC(=O)[C@H]1CC[C@H]2[C@@H]3CCC4=CC(=O)CC[C@]4(C)[C@H]3CC[C@]12C [prog, progesterone]
[2]
  Ca2+ measurement and whole-cell patch-clamp inhibition; steroid overlay binding: TRPM3 bound to pregnenolone sulphate, progesterone, nifedipine, dihydrotestosterone and cholesterol

## CS(=O)(=O)c1ccc(C(=O)Nc2ccc(N3CCCC3)cc2)c(Cl)c1 [2-CMNPBC, 2-chloro-4-(methylsulphonyl)-N-[4-(1 pyrrolidinyl)phenyl]benzenecarboxamide]
[3]
  Ca2+ measurement; 10 μM inhibits PregS-evoked but not nifedipine-evoked TRPM3 ac: (2-CMNPBC, Fig. 9a), which also inhibited pregnenolone sulphate-evoked TRPM3 activity

— paper PMC3275754, “Pregnenolone sulphate-independent inhibition of TRPM3 channels by progesterone” (Cell Calcium, 2012)
